ChEMBL document CHEMBL1130041, “Halogenated 4-(phenoxymethyl)piperidines as potential radiolabeled probes for sigma-1 receptors: in vivo evaluation of [123I]-1-(iodopropen-2-yl)-4-[(4-cyanophenoxy)methyl]pip eri dine” (J Med Chem, 1997)

Tests used:
Rattus norvegicus [1] = species on record: Rattus norvegicus; experiment: Biodistribution of [123I]-label in rat lung was reported at 1 hr post injection. Value shown is %ID/g of tissue; assay type: ADME, organism-based; settings: in vivo
Rattus norvegicus [2] = species on record: Rattus norvegicus; experiment: Biodistribution of [123I]-label in rat stomach was reported at 24 hr post injection. Value shown is %ID/g of tissue; assay type: ADME, organism-based; settings: in vivo
Rattus norvegicus [3] = species on record: Rattus norvegicus; experiment: Biodistribution of [123I]-label in rat stomach was reported at 1 h post injection. Value shown is %ID/g of tissue; assay type: ADME, organism-based; settings: in vivo
Rattus norvegicus [4] = species on record: Rattus norvegicus; experiment: Biodistribution of [123I]-label in rat blood was reported at 1 hr post injection. Value shown is %ID/g of tissue; assay type: ADME, organism-based; settings: in vivo
Rattus norvegicus [5] = species on record: Rattus norvegicus; experiment: Biodistribution of [123I]-label in rat brain was reported at 24 hr post injection. Value shown is %ID/organ; assay type: ADME, organism-based; settings: in vivo
Rattus norvegicus [6] = species on record: Rattus norvegicus; experiment: Biodistribution of [123I]-label in rat stomach was reported at 0.33 hr post injection. Value shown is %ID/g of tissue; assay type: ADME, organism-based; settings: in vivo
Rattus norvegicus [7] = species on record: Rattus norvegicus; experiment: Distribution of [123I]-label in rat brain (midbrain) was reported at 60 min post injection. Value shown is %ID/g of tissue; assay type: ADME, organism-based; settings: in vivo, 1 h
Rattus norvegicus [8] = species on record: Rattus norvegicus; experiment: Biodistribution of [123I]-label in rat intestine was reported at 0.33 hr post injection. Value shown is %ID/g of tissue; assay type: ADME, organism-based; settings: in vivo
Rattus norvegicus [9] = species on record: Rattus norvegicus; experiment: Biodistribution of [123I]-label in rat brain was reported at 0.33 hr post injection. Value shown is %ID/organ; assay type: ADME, organism-based; settings: in vivo
Rattus norvegicus [10] = species on record: Rattus norvegicus; experiment: Biodistribution of [123I]-label in rat heart was reported at 0.33 hr post injection. Value shown is %ID/g of tissue; assay type: ADME, organism-based; settings: in vivo
[11] = molecular target: Sigma non-opioid intracellular receptor 1 (Homo sapiens, UniProt Q99720); experiment: 50% inhibitory dose against sigma receptor; assay type: functional
Sigma non-opioid intracellular receptor 1, sequence (Q99720 whole entry): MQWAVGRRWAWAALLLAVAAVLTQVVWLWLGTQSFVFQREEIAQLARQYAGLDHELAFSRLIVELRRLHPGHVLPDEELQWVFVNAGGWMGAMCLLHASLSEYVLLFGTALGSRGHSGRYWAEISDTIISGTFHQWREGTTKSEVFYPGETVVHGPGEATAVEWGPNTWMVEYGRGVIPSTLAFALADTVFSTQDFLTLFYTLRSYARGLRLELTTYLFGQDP

Rattus norvegicus [12] = species on record: Rattus norvegicus; experiment: Distribution of [123I]-label in rat brain (frontal cortex) was reported at 60 min post injection. Value shown is %ID/g of tissue; assay type: ADME, organism-based; settings: in vivo, 1 h
Rattus norvegicus [13] = species on record: Rattus norvegicus; experiment: Biodistribution of [123I]-label in rat lung was reported at 0.33 hr post injection. Value shown is %ID/g of tissue; assay type: ADME, organism-based; settings: in vivo
Rattus norvegicus [14] = species on record: Rattus norvegicus; experiment: Biodistribution of [123I]-label in rat lung was reported at 2 hr post injection. Value shown is %ID/g of tissue; assay type: ADME, organism-based; settings: in vivo
Rattus norvegicus [15] = species on record: Rattus norvegicus; experiment: Biodistribution of [123I]-label in rat muscle was reported at 4 hr post injection. Value shown is %ID/g of tissue; assay type: ADME, organism-based; settings: in vivo
Rattus norvegicus [16] = species on record: Rattus norvegicus; experiment: Distribution of [123I]-label in rat brain (medulla pons) was reported at 60 min post injection. Value shown is %ID/g of tissue; assay type: ADME, organism-based; settings: in vivo, 1 h
Rattus norvegicus [17] = species on record: Rattus norvegicus; experiment: Biodistribution of [123I]-label in rat heart was reported at 1 hr post injection. Value shown is %ID/g of tissue; assay type: ADME, organism-based; settings: in vivo
Rattus norvegicus [18] = species on record: Rattus norvegicus; experiment: Biodistribution of [123I]-label in rat muscle was reported at 0.33 hr post injection. Value shown is %ID/g of tissue; assay type: ADME, organism-based; settings: in vivo
Rattus norvegicus [19] = species on record: Rattus norvegicus; experiment: Biodistribution of [123I]-label in rat thyroid was reported at 1 hr post injection. Value shown is %ID/organ; assay type: ADME, organism-based, Thyroid gland; settings: in vivo
Rattus norvegicus [20] = species on record: Rattus norvegicus; experiment: Biodistribution of [123I]-label in rat kidneys was reported at 1 h post injection. Value shown is %ID/g of tissue; assay type: ADME, organism-based, Kidney; settings: in vivo
Rattus norvegicus [21] = species on record: Rattus norvegicus; experiment: Biodistribution of [123I]-label in rat spleen was reported at 24 h post injection. Value shown is %ID/g of tissue; assay type: ADME, organism-based; settings: in vivo
D(2) dopamine receptor = D(2) dopamine receptor (Homo sapiens, UniProt P14416); experiment: In vitro binding affinity for Dopamine receptor D2
D(2) dopamine receptor, sequence (P14416 whole entry): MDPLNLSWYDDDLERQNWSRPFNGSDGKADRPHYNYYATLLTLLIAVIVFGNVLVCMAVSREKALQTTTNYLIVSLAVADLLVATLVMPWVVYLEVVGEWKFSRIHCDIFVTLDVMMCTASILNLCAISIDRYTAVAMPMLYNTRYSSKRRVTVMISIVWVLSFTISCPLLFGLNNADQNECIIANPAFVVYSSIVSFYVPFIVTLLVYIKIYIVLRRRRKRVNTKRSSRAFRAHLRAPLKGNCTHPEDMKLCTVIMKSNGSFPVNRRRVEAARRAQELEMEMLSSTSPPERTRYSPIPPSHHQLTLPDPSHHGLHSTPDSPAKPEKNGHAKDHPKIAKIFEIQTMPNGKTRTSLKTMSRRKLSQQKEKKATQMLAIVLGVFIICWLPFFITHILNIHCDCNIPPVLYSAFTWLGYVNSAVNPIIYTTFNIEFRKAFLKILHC

Rattus norvegicus [22] = species on record: Rattus norvegicus; experiment: Biodistribution of [123I]-label in rat heart was reported at 2 hr post injection. Value shown is %ID/g of tissue; assay type: ADME, organism-based; settings: in vivo
Rattus norvegicus [23] = species on record: Rattus norvegicus; experiment: Biodistribution of [123I]-label in rat liver was reported at 24 h post injection. Value shown is %ID/g of tissue; assay type: ADME, organism-based; settings: in vivo
Rattus norvegicus [24] = species on record: Rattus norvegicus; experiment: Distribution of [123I]-label in rat brain (striatum) was reported at 20 min post injection. Value shown is %ID/g of tissue; assay type: ADME, organism-based; settings: in vivo
Rattus norvegicus [25] = species on record: Rattus norvegicus; experiment: Biodistribution of [123I]-label in rat brain was reported at 1 hr post injection. Value shown is %ID/organ; assay type: ADME, organism-based; settings: in vivo
Rattus norvegicus [26] = species on record: Rattus norvegicus; experiment: Biodistribution of [123I]-label in rat brain was reported at 1 hr post injection. Value shown is %ID/g of tissue; assay type: ADME, organism-based; settings: in vivo
Rattus norvegicus [27] = species on record: Rattus norvegicus; experiment: Biodistribution of [123I]-label in rat spleen was reported at 4 hr post injection. Value shown is %ID/g of tissue; assay type: ADME, organism-based; settings: in vivo
Rattus norvegicus [28] = species on record: Rattus norvegicus; experiment: Biodistribution of [123I]-label in rat blood was reported at 24 hr post injection. Value shown is %ID/g of tissue; assay type: ADME, organism-based; settings: in vivo
Rattus norvegicus [29] = species on record: Rattus norvegicus; experiment: Distribution of [123I]-label in rat brain (midbrain) was reported at 20 min post injection. Value shown is %ID/g of tissue; assay type: ADME, organism-based; settings: in vivo
Rattus norvegicus [30] = species on record: Rattus norvegicus; experiment: Distribution of [123I]-label in rat brain (posterior cortex) was reported at 60 min post injection. Value shown is %ID/g of tissue; assay type: ADME, organism-based; settings: in vivo, 1 h
Rattus norvegicus [31] = species on record: Rattus norvegicus; experiment: Biodistribution of [123I]-label in rat brain was reported at 24 hr post injection. Value shown is %ID/g of tissue; assay type: ADME, organism-based; settings: in vivo
Rattus norvegicus [32] = species on record: Rattus norvegicus; experiment: Biodistribution of [123I]-label in rat thyroid was reported at 24 hr post injection. Value shown is %ID/organ; assay type: ADME, organism-based, Thyroid gland; settings: in vivo
Rattus norvegicus [33] = species on record: Rattus norvegicus; experiment: Biodistribution of [123I]-label in rat muscle was reported at 2 hr post injection. Value shown is %ID/g of tissue; assay type: ADME, organism-based; settings: in vivo
Rattus norvegicus [34] = species on record: Rattus norvegicus; experiment: Biodistribution of [123I]-label in rat muscle was reported at 1 hr post injection. Value shown is %ID/g of tissue; assay type: ADME, organism-based; settings: in vivo
Rattus norvegicus [35] = species on record: Rattus norvegicus; experiment: Biodistribution of [123I]-label in rat brain was reported at 4 hr post injection. Value shown is %ID/organ; assay type: ADME, organism-based; settings: in vivo
Rattus norvegicus [36] = species on record: Rattus norvegicus; experiment: Biodistribution of [123I]-label in rat kidneys was reported at 0.33 hr post injection. Value shown is %ID/g of tissue; assay type: ADME, organism-based, Kidney; settings: in vivo
Rattus norvegicus [37] = species on record: Rattus norvegicus; experiment: Biodistribution of [123I]-label in rat thyroid was reported at 2 hr post injection. Value shown is %ID/organ; assay type: ADME, organism-based, Thyroid gland; settings: in vivo
Rattus norvegicus [38] = species on record: Rattus norvegicus; experiment: Biodistribution of [123I]-label in rat spleen was reported at 1 hr post injection. Value shown is %ID/g of tissue; assay type: ADME, organism-based; settings: in vivo
Rattus norvegicus [39] = species on record: Rattus norvegicus; experiment: Biodistribution of [123I]-label in rat intestine was reported at 1 hr post injection. Value shown is %ID/g of tissue; assay type: ADME, organism-based; settings: in vivo
[40] = In Vitro binding affinity for 5-hydroxytryptamine 2 receptor
Rattus norvegicus [41] = species on record: Rattus norvegicus; experiment: Biodistribution of [123I]-label in rat kidneys was reported at 24 hr post injection. Value shown is %ID/g of tissue; assay type: ADME, organism-based, Kidney; settings: in vivo
Rattus norvegicus [42] = species on record: Rattus norvegicus; experiment: Distribution of [123I]-label in rat brain (cerebellum) was reported at 60 min post injection. Value shown is %ID/g of tissue; assay type: ADME, organism-based; settings: in vivo, 1 h
Rattus norvegicus [43] = species on record: Rattus norvegicus; experiment: Distribution of [123I]-label in rat brain (striatum) was reported at 60 min post injection. Value shown is %ID/g of tissue; assay type: ADME, organism-based; settings: in vivo, 1 h
Rattus norvegicus [44] = species on record: Rattus norvegicus; experiment: Biodistribution of [123I]-label in rat lung was reported at 4 hr post injection. Value shown is %ID/g of tissue; assay type: ADME, organism-based; settings: in vivo
Rattus norvegicus [45] = species on record: Rattus norvegicus; experiment: Distribution of [123I]-label in rat brain (cerebellum) was reported at 20 min post injection. Value shown is %ID/g of tissue; assay type: ADME, organism-based; settings: in vivo

Q: Which results are given for N#Cc1ccc(OCC2CCN(C/C=C/I)CC2)cc1?
A: ID/g (Rattus norvegicus [1]): 6.35%; ID/g (Rattus norvegicus [2]): 0.18%; ID/g (Rattus norvegicus [3]): 0.65%; ID/g (Rattus norvegicus [4]): 0.08%; ID (Rattus norvegicus [5]): 1.61%; ID/g (Rattus norvegicus [6]): 0.46%; ID/g (Rattus norvegicus [7]): 1.17%; ID/g (Rattus norvegicus [8]): 0.54%; ID (Rattus norvegicus [9]): 1.97%; ID/g (Rattus norvegicus [10]): 1.25%; ID50 [11]: 0.01 mg/kg; ID/g (Rattus norvegicus [12]): 1.29%; ID/g (Rattus norvegicus [13]): 6.59%; ID/g (Rattus norvegicus [14]): 3.75%; ID/g (Rattus norvegicus [15]): 0.2%; ID/g (Rattus norvegicus [16]): 1%; ID/g (Rattus norvegicus [17]): 1.21%; ID/g (Rattus norvegicus [18]): 0.23%; ID (Rattus norvegicus [19]): 0.3%; ID/g (Rattus norvegicus [20]): 1.64%; ID/g (Rattus norvegicus [21]): 0.87%; Ki (D(2) dopamine receptor): > 10 µM; ID/g (Rattus norvegicus [22]): 0.81%; ID/g (Rattus norvegicus [23]): 0.55%; ID/g (Rattus norvegicus [24]): 1.17%; ID (Rattus norvegicus [25]): 1.96%; ID/g (Rattus norvegicus [26]): 1.09%; ID/g (Rattus norvegicus [27]): 0.93%; ID/g (Rattus norvegicus [28]): 0.01%; ID/g (Rattus norvegicus [29]): 1.06%; ID/g (Rattus norvegicus [30]): 1.51%; ID/g (Rattus norvegicus [31]): 0.84%; ID (Rattus norvegicus [32]): 1.19%; ID/g (Rattus norvegicus [33]): 0.22%; ID/g (Rattus norvegicus [34]): 0.29%; ID (Rattus norvegicus [35]): 2.03%; ID/g (Rattus norvegicus [36]): 1.64%; ID (Rattus norvegicus [37]): 0.27%; ID/g (Rattus norvegicus [38]): 0.92%; ID/g (Rattus norvegicus [39]): 0.82%; Ki [40]: > 10 µM; ID/g (Rattus norvegicus [41]): 0.59%; ID/g (Rattus norvegicus [42]): 1.09%; ID/g (Rattus norvegicus [43]): 1.13%; ID/g (Rattus norvegicus [44]): 3.14%; ID/g (Rattus norvegicus [45]): 1.01%
